Assay results from patent publication US8846652B2, “Therapeutic uses of steroidal compounds” (Hunter-Fleming Limited, priority 2005, dated 2014).
Peptide text beside a SMILES is read from it.

Tests used:
[1] = biological target: T1, GALR2 (Homo sapiens, UniProt O43603); details: cited from earlier work
T1 sequence (O43603 1-387): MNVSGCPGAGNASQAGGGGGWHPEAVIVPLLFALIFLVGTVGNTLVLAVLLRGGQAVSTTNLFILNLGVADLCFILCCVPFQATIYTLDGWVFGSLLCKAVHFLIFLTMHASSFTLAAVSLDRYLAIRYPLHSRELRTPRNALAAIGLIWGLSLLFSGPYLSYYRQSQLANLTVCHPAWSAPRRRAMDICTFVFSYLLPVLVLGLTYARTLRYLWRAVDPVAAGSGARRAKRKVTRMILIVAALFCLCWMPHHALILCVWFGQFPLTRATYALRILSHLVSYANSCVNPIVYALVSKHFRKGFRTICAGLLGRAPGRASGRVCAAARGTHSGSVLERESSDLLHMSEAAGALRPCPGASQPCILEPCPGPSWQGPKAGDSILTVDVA

[2] = biological target: T2, GALR1 (Homo sapiens, UniProt P47211); details: cited from earlier work
T2 sequence (P47211 1-349): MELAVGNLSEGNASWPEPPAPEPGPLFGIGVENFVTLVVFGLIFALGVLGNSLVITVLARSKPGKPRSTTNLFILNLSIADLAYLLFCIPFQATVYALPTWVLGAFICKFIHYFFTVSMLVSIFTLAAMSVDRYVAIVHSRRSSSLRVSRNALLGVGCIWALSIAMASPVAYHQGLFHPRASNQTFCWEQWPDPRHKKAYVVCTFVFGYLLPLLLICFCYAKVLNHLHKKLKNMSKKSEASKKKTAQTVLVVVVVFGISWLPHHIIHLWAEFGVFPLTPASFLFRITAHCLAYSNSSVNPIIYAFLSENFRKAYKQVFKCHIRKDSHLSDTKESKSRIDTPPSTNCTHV

[3] = test system: spared nerve injury (SNI) model of neuropathic pain; experiment: Spared nerve injury (SNI) model of neuropathic pain, mechanical allodynia by von Frey filaments; type: in vivo, mice; details: daily oral gavage for two weeks, SNI lesion on day 8, thresholds measured at 2 pm over 7 days after SNI surgery
Description: All animals were fed standard chow and water ad libitum. Animal care and procedures were performed within the United Kingdom Home Office protocols and guidelines. Age (10-12 weeks, 25-30 g) matched adult mice were used in all experiments (n=8/genotype).
Mice were anaesthetised with Hypnorm (Fentanyl citrate 0.315 mg/ml+Fluanisone 10 mg/ml, Jansson):Hypnovel (Midazolam 5 mg/ml, Roche):water at a ratio of 1:1:2 at 4 μl/g. The recently described SNI model of neuropathic pain was used (Holmes et al (2003) Proc. Natl. Acad. Sci. U.S.A. 100 6180-6185). The spared nerve injury model (SNI), is performed by ligation of two branches of the sciatic nerve after it trifurcates, leaving one branch intact. […]
In all tests, the examiner was blind to the genotype of the mice. Mechanical thresholds were measured with a series of calibrated von Frey filaments (Stoeling) from 0.005 g to a maximum of 3.63 g. […] Mechanical sensitivity was assessed on each hind paw, employing the up-down testing paradigm to determine the threshold force required to elicit a withdrawal response to 50% of stimulations [F. E. Holmes, A. Bacon, R. J. Pope, P. A. Vanderplank, N. C. […]
11β-hydroxy-Δ4-androstene-3,17-dione was administered to 8 adult male mice aged 10-12 weeks of age daily at 9.00 am by oral gavage for two weeks. […] At 2 pm on the days when testing took place, mechanosensory thresholds were measured.

Row | SMILES | agonistic activity at GALR2 [1] | agonistic activity at GALR1 [2] | mechanosensory allodynia (chronic pain behaviour) after SNI surgery [3]
1 | Cc1cc(=O)oc2cc(NC(=O)[C@H](CCCCN)NC(=O)[C@H](CC3CCCCC3)NC(=O)OCC3c4ccccc4-c4ccccc43)ccc12 [galnon] (HELM PEPTIDE1{[O=C(OCC1c2ccccc2-c2ccccc21)[*:2]].[Cha].K.[Cc1cc(=O)oc2cc(N[*:1])ccc12]}$$$$V2.0) | equally activates and has agonistic activity | equally activates and has agonistic activity | 
2 | C[C@]12CCC(=O)C=C1CC[C@@H]1[C@@H]2[C@@H](O)C[C@]2(C)C(=O)CC[C@@H]12 [11β-hydroxy-Δ4-androstene-3,17-dione] |  |  | markedly and significantly attenuated mechanosensory allodynia
